# Measurements reported in ChEMBL document CHEMBL4393715, “Design, synthesis and biological evaluation of the thioether-containing lenalidomide analogs with anti-proliferative activities” (Eur J Med Chem, 2019).
# What was measured:
# PBMC [1] = experiment: Antiinflammatory activity in human PBMC cells assessed as reduction in LPS-induced TNF-alpha production preincubated for 1 hr followed by LPS addition and measured after 18 to 20 hrs by ELISA; format: functional, cell-based
# U-266 = experiment: Antiproliferative activity against human U266 cells measured after 72 hrs by CellTiter96 Aqueous non-radioactive cell proliferation assay; format: functional, cell-based; settings: U-266, 72 h
# Kasumi 1 = experiment: Antiproliferative activity against human Kasumi-1 cells measured after 168 hrs by CellTiter96 Aqueous non-radioactive cell proliferation assay; format: functional, cell-based; settings: Kasumi 1, 168 h
# THP-1 = experiment: Antiproliferative activity against human THP1 cells measured after 168 hrs by CellTiter96 Aqueous non-radioactive cell proliferation assay; format: functional, cell-based; settings: THP-1, 168 h
# Z-138 = experiment: Antiproliferative activity against human Z138 cells measured after 72 hrs by CellTiter96 Aqueous non-radioactive cell proliferation assay; format: functional, cell-based; settings: Z-138, 72 h
# PBMC [2] = experiment: Cytotoxicity against human PBMC cells by CellTiter96 Aqueous non-radioactive cell proliferation assay; format: cell-based
# MV4-11 = experiment: Antiproliferative activity against human MV411 cells measured after 168 hrs by CellTiter96 Aqueous non-radioactive cell proliferation assay; format: functional, cell-based; settings: MV4-11, 168 h
# RPMI-8226 = experiment: Antiproliferative activity against human RPMI8226 cells measured after 72 hrs by CellTiter96 Aqueous non-radioactive cell proliferation assay; format: functional, cell-based; settings: RPMI-8226, 72 h
# [3] = Antiproliferative activity against human Mino cells measured after 72 hrs by CellTiter96 Aqueous non-radioactive cell proliferation assay; format: functional, cell-based
# JeKo-1 = experiment: Antiproliferative activity against human JeKo1 cells measured after 72 hrs by CellTiter96 Aqueous non-radioactive cell proliferation assay; format: functional, cell-based; settings: JeKo-1, 72 h
# Raji = experiment: Antiproliferative activity against human Raji cells measured after 168 hrs by CellTiter96 Aqueous non-radioactive cell proliferation assay; format: functional, cell-based
# MM1.S = experiment: Antiproliferative activity against human MM1S cells measured after 168 hrs by CellTiter96 Aqueous non-radioactive cell proliferation assay; format: functional, cell-based
# [4] = MRT (infinity) in BALB/c mouse at 5 mg/kg, iv and measured up to 24 hrs by LC-MS/MS analysis; format: ADME, organism-based; settings: in vivo
# [5] = Volume of distribution at steady state in BALB/c mouse at 5 mg/kg, iv and measured up to 24 hrs by LC-MS/MS analysis; format: ADME, organism-based; settings: in vivo, read-out: Vdss
# [6] = Clearance in BALB/c mouse at 5 mg/kg, iv and measured up to 24 hrs by LC-MS/MS analysis; format: ADME, organism-based; settings: in vivo
# [7] = AUC (infinity) in BALB/c mouse at 20 mg/kg, po and measured up to 24 hrs by LC-MS/MS analysis; format: ADME, organism-based; set-up: dose 20 mg/kg, route oral, time infinity; settings: in vivo
# [8] = Cmax in BALB/c mouse at 20 mg/kg, po and measured up to 24 hrs by LC-MS/MS analysis; format: ADME, organism-based; set-up: dose 20 mg/kg, route oral; settings: in vivo
# [9] = Tmax in BALB/c mouse at 20 mg/kg, po and measured up to 24 hrs by LC-MS/MS analysis; format: ADME, organism-based; settings: in vivo
# [10] = Half-life in BALB/c mouse at 5 mg/kg, iv and measured up to 24 hrs by LC-MS/MS analysis; format: ADME, organism-based; settings: in vivo
# [11] = Terminal elimination half life in BALB/c mouse at 20 mg/kg, po and measured up to 24 hrs by LC-MS/MS analysis; format: ADME, organism-based; settings: in vivo, read-out: LambdaZ (converted)
# [12] = AUC (infinity) in BALB/c mouse at 5 mg/kg, iv and measured up to 24 hrs by LC-MS/MS analysis; format: ADME, organism-based; set-up: dose 5 mg/kg, route intravenous, time infinity; settings: in vivo
# [13] = Oral bioavailability in BALB/c mouse at 20 mg/kg and measured up to 24 hrs by LC-MS/MS analysis; format: ADME, organism-based; settings: in vivo
compound,measurement,setting,value
Nc1cccc2c1C(=O)N(C1CCC(=O)NC1=O)C2 (centres undefined),IC50,PBMC [1],> 100000 nM
Nc1ccc2c(c1)C(=O)N(C1CCC(=O)NC1=O)C2 (centres undefined),IC50,PBMC [1],> 100000 nM
Nc1ccc2c(c1)CN(C1CCC(=O)NC1=O)C2=O (centres undefined),IC50,PBMC [1],> 100000 nM
Cc1ccc(NC(=O)NCc2ccc3c(c2)CN(C2CCC(=O)NC2=O)C3=O)cc1Cl (centres undefined),IC50,U-266,2 nM
same,IC50,Kasumi 1,0.8 nM
same,IC50,THP-1,1.5 nM
same,IC50,Z-138,0.4 nM
same,IC50,PBMC [2],0.3 nM
same,IC50,MV4-11,0.2 nM
same,IC50,RPMI-8226,5.5 nM
same,IC50,[3],0.4 nM
same,IC50,JeKo-1,1.2 nM
same,IC50,Raji,20.4 nM
same,IC50,MM1.S,0.3 nM
N#Cc1ccc(CSc2cccc3c2CN(C2CCC(=O)NC2=O)C3=O)cc1 (centres undefined),IC50,U-266,> 20000 nM
same,IC50,Kasumi 1,> 20000 nM
same,IC50,THP-1,> 20000 nM
same,IC50,Z-138,> 20000 nM
same,IC50,PBMC [2],> 20000 nM
same,IC50,MV4-11,> 20000 nM
same,IC50,RPMI-8226,200 nM
same,IC50,[3],3.7 nM
same,IC50,JeKo-1,> 20000 nM
same,IC50,Raji,> 20000 nM
same,IC50,MM1.S,1.3 nM
NC(=O)c1ccc(CSc2cccc3c2CN(C2CCC(=O)NC2=O)C3=O)cc1 (centres undefined),IC50,[3],35.4 nM
COC(=O)c1ccc(CSc2cccc3c2CN(C2CCC(=O)NC2=O)C3=O)cc1 (centres undefined),IC50,[3],7.4 nM
O=C1CCC(N2Cc3c(SCc4cccc(F)c4)cccc3C2=O)C(=O)N1 (centres undefined),IC50,MV4-11,> 20000 nM
same,IC50,[3],4.3 nM
same,IC50,MM1.S,0.9 nM
CC(C)(C)OC(=O)c1ccc(CSc2cccc3c2CN(C2CCC(=O)NC2=O)C3=O)cc1 (centres undefined),IC50,[3],1.1 nM
CC1CC(C)CN(C(=O)c2ccc(CSc3cccc4c3CN(C3CCC(=O)NC3=O)C4=O)cc2)C1 (centres undefined),IC50,[3],6 nM
O=C1CCC(N2Cc3c(SCc4cccc(Cl)c4)cccc3C2=O)C(=O)N1 (centres undefined),IC50,MV4-11,> 20000 nM
same,IC50,[3],2.4 nM
same,IC50,MM1.S,1.1 nM
N#Cc1cccc(CSc2cccc3c2CN(C2CCC(=O)NC2=O)C3=O)c1 (centres undefined),IC50,MV4-11,> 20000 nM
same,IC50,[3],8 nM
same,IC50,MM1.S,1.4 nM
O=C1CCC(N2Cc3c(SCc4ccc(C(=O)N5CCOCC5)cc4)cccc3C2=O)C(=O)N1 (centres undefined),IC50,[3],1.9 nM
O=C1CCC(N2Cc3c(SCc4ccccc4Cl)cccc3C2=O)C(=O)N1 (centres undefined),IC50,MV4-11,> 20000 nM
same,IC50,[3],11.6 nM
same,IC50,MM1.S,1.1 nM
O=C1CCC(N2Cc3c(SCc4ccc(CN5CCOCC5)cc4)cccc3C2=O)C(=O)N1 (centres undefined),MRT inf,[4],22.2 min
same,Vd,[5],4.69 L/kg
same,clearance,[6],210 mL/min/kg
same,AUC(0-inf),[7],288 ng·h/mL
same,Cmax,[8],496 ng/mL
same,Tmax,[9],8.4 min
same,half-life,[10],52.8 min
same,IC50,[3],3.3 nM
same,half-life,[11],85.8 min
same,AUC(0-inf),[12],397 ng·h/mL
same,bioavailability,[13],17.6%
CCCCCSc1cccc2c1CN(C1CCC(=O)NC1=O)C2=O (centres undefined),IC50,MV4-11,> 20000 nM
same,IC50,[3],160 nM
same,IC50,MM1.S,1.1 nM
Cc1cccc(CSc2cccc3c2CN(C2CCC(=O)NC2=O)C3=O)c1 (centres undefined),IC50,MV4-11,> 20000 nM
same,IC50,[3],3.3 nM
same,IC50,MM1.S,0.4 nM
O=C1CCC(N2Cc3c(cccc3[S+]([O-])Cc3ccc(CN4CCOCC4)cc3)C2=O)C(=O)N1 (centres undefined),IC50,[3],100 nM
O=C1CCC(N2Cc3c(cccc3S(=O)(=O)Cc3ccc(CN4CCOCC4)cc3)C2=O)C(=O)N1 (centres undefined),IC50,[3],> 20000 nM
CC1CN(C(=O)c2ccc(CSc3cccc4c3CN(C3CCC(=O)NC3=O)C4=O)cc2)CC(C)O1 (centres undefined),IC50,[3],6.5 nM
Cc1ccc(CSc2cccc3c2CN(C2CCC(=O)NC2=O)C3=O)cc1 (centres undefined),IC50,U-266,5.6 nM
same,IC50,Kasumi 1,> 20000 nM
same,IC50,THP-1,> 20000 nM
same,IC50,Z-138,> 20000 nM
same,IC50,PBMC [2],> 20000 nM
same,IC50,MV4-11,> 20000 nM
same,IC50,RPMI-8226,5.4 nM
same,IC50,[3],2.9 nM
same,IC50,JeKo-1,> 20000 nM
same,IC50,Raji,> 20000 nM
same,IC50,MM1.S,0.4 nM
CN1CCN(C(=O)c2ccc(CSc3cccc4c3CN(C3CCC(=O)NC3=O)C4=O)cc2)CC1 (centres undefined),IC50,[3],3.4 nM
CSc1cccc2c1CN(C1CCC(=O)NC1=O)C2=O (centres undefined),IC50,MV4-11,> 20000 nM
same,IC50,[3],930 nM
same,IC50,MM1.S,2.1 nM
N#Cc1ccccc1CSc1cccc2c1CN(C1CCC(=O)NC1=O)C2=O (centres undefined),IC50,MV4-11,> 20000 nM
same,IC50,[3],30.5 nM
same,IC50,MM1.S,2.9 nM
O=C1CCC(N2Cc3c(SCc4ccc(F)cc4)cccc3C2=O)C(=O)N1 (centres undefined),IC50,U-266,2.6 nM
same,IC50,Kasumi 1,> 20000 nM
same,IC50,THP-1,> 20000 nM
same,IC50,Z-138,> 20000 nM
same,IC50,PBMC [2],> 20000 nM
same,IC50,MV4-11,> 20000 nM
same,IC50,RPMI-8226,40 nM
same,IC50,[3],2.6 nM
same,IC50,JeKo-1,> 20000 nM
same,IC50,Raji,> 20000 nM
same,IC50,MM1.S,0.9 nM
CCNC(=O)c1ccc(CSc2cccc3c2CN(C2CCC(=O)NC2=O)C3=O)cc1 (centres undefined),IC50,[3],4.2 nM
O=C1CCC(N2Cc3c(SCc4ccccc4F)cccc3C2=O)C(=O)N1 (centres undefined),IC50,MV4-11,> 20000 nM
same,IC50,[3],2.9 nM
same,IC50,MM1.S,0.6 nM
O=C1CCC(N2Cc3c(SCc4ccc(C(=O)N5CCCCC5)cc4)cccc3C2=O)C(=O)N1 (centres undefined),MRT inf,[4],27 min
same,Vd,[5],5.31 L/kg
same,clearance,[6],197 mL/min/kg
same,AUC(0-inf),[7],34.1 ng·h/mL
same,Cmax,[8],16.7 ng/mL
same,Tmax,[9],30 min
same,half-life,[10],42 min
same,IC50,[3],0.5 nM
same,half-life,[11],84.6 min
same,AUC(0-inf),[12],424 ng·h/mL
same,bioavailability,[13],2.9%
Cc1ccccc1CSc1cccc2c1CN(C1CCC(=O)NC1=O)C2=O (centres undefined),IC50,MV4-11,> 20000 nM
same,IC50,[3],16.6 nM
same,IC50,MM1.S,1.8 nM
O=C1CCC(N2Cc3c(SCc4ccccc4)cccc3C2=O)C(=O)N1 (centres undefined),IC50,MV4-11,> 20000 nM
same,IC50,[3],6.3 nM
same,IC50,MM1.S,1.1 nM
CNC(=O)c1ccc(CSc2cccc3c2CN(C2CCC(=O)NC2=O)C3=O)cc1 (centres undefined),IC50,[3],28.3 nM
Nc1cccc2c1CN(C1CCC(=O)NC1=O)C2=O (centres undefined) [LENALIDOMIDE],IC50,U-266,> 20000 nM
same,IC50,Kasumi 1,> 20000 nM
same,IC50,THP-1,> 20000 nM
same,IC50,Z-138,> 20000 nM
same,IC50,PBMC [2],> 20000 nM
same,IC50,MV4-11,> 20000 nM
same,IC50,RPMI-8226,> 20000 nM
same,IC50,[3],> 20000 nM
same,IC50,JeKo-1,> 20000 nM
same,IC50,Raji,> 20000 nM
same,IC50,MM1.S,50 nM
